Assay results as given in PubChem BioAssay AID2510 (The Scripps Research Institute Molecular Screening Center, 2010).

Biological target: Mucolipin-3 (Homo sapiens) (UniProt Q8TDD5)
Assay: TRPML3 agonist potency, dose response, cell-based, calcium fluorescence (AID 2510)
Conditions: TRPML3-expressing cells, agonist mode

Chain of Mucolipin-3 (Homo sapiens) (Q8TDD5 whole entry, looked up): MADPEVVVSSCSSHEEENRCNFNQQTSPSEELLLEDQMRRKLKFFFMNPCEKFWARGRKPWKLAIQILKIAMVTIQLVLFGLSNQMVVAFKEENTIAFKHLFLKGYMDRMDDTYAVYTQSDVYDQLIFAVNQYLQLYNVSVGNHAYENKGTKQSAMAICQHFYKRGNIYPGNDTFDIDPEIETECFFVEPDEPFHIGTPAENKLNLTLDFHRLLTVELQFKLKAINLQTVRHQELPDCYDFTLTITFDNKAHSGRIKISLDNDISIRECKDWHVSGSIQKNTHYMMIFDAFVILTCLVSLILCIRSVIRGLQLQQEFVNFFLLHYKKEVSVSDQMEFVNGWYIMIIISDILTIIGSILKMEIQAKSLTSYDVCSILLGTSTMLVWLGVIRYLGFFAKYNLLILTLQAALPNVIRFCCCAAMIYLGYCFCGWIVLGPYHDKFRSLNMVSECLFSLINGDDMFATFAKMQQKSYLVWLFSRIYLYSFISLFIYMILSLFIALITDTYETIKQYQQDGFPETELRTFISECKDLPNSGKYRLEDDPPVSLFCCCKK

`CCOc1ccc(S(=O)(=O)N2CCCCC2)c(C)c1C` showed an EC50 of 1.8 µM.
